# Test results: US20140256756A1, “PIPERIDINYL-SUBSTITUTED LACTAMS AS GPR119 MODULATORS” (Array BioPharma Inc., priority 2011, published 2014)
# Where a name gives a salt, the structure may show the parent alone.
# System: modified version of the GPR119 receptor (94% identity to human receptor)
# Assay: cAMP production assay (LANCE cAMP kit, TR-FRET) in HEK-293 cells
# Type: cell-based
# Conditions: for cAMP production in HEK-293 cells: HEK-293 cells stably expressing modified GPR119, test compounds 0.2 nM to 10 μM, one-hour incubation; for Fold over baseline: increase in cAMP relative to basal levels, agonist activity if 1.5-fold or greater
# Method in brief: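 Doxycycline-induced HEK-293 cells expressing modified GPR119 exposed to compounds (0.2 nM to 10 μM, 0.5% DMSO) for one hour at ambient temperature in HBSS with HEPES and BSA. cAMP measured by TR-FRET competition and interpolated from a standard curve; agonism defined as ≥1.5-fold over basal.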
Compound,cAMP production in HEK-293 cells,Fold over baseline
"CC(C)c1nsc(N2CCC(N3CCC(Oc4ccc(-n5cnnn5)nc4)C3=O)CC2)n1 (stereo not shown) [Example 82, 3-(6-(1H-tetrazol-1-yl)pyridin-3-yloxy)-1-(1-(3-isopropyl-1,2,4-thiadiazol-5-yl)piperidin-4-yl)pyrrolidin-2-one]",12.8 nmol,2.4
"CC(C)(C)n1nnc(N2CCC(N3CC[C@H](Oc4ccc(S(C)(=O)=O)cc4F)C3=O)CC2)n1 [Example 95, (S)-1-(1-(2-(tert-butyl)2H-tetrazol-5-yl)piperidin-4-yl)-3-(2-fluoro-4-(methylsulfonyl)phenoxy)pyrrolidin-2-one]",16.7 nmol,3.4
"CC(C)c1nsc(N2CCC(N3CCC(Oc4ccc(C(=O)NCCO)cc4F)C3=O)CC2)n1.Cl (stereo not shown) [Example 77, 3-Fluoro-N-(2-hydroxyethyl)-4-(1-(1-(3-isopropyl-1,2,4-thiadiazol-5-yl)piperidin-4-yl)-2-oxopyrrolidin-3-yloxy)benzamide hydrochloride]",15.1 nmol,2.8
"CS(=O)(=O)c1ccc(O[C@H]2CCN(C3CCN(c4nc(Br)ns4)CC3)C2=O)c(F)c1 [Example 69, (S)-1-(1-(3-bromo-1,2,4-thiadiazol-5-yl)piperidin-4-yl)-3-(2-fluoro-4-(methylsulfonyl)phenoxy)pyrrolidin-2-one]",10.6 nmol,2.1
"CCS(=O)(=O)c1ccc(N[C@H]2CCN(C3CCN(c4nc(C(C)C)ns4)CC3)C2=O)c(F)c1 [Example 3, (S)-3-(4-(ethylsulfonyl)-2-fluorophenylamino)-1-(1-(3-isopropyl-1,2,4-thiadiazol-5-yl)piperidin-4-yl)pyrrolidin-2-one]",25.3 nmol,5.4
"Cc1cc(O[C@H]2CCN(C3CCN(c4nc(C(C)C)ns4)CC3)C2=O)c(F)cc1Br [Example 57, (S)-3-(4-bromo-2-fluoro-5-methylphenoxy)-1-(1-(3-isopropyl-1,2,4-thiadiazol-5-yl)piperidin-4-yl)pyrrolidin-2-one]",22.0 nmol,2.8
"CC(C)Cc1nsc(N2CCC(N3CC[C@H](Nc4ccc(S(C)(=O)=O)cc4F)C3=O)CC2)n1 [Example 22, (S)-3-(2-fluoro-4-(methylsulfonyl)phenylamino)-1-(1-(3-isobutyl-1,2,4-thiadiazol-5-yl)piperidin-4-yl)pyrrolidin-2-one trifluoroacetate]",22.1 nmol,7.6
"CC(C)c1nsc(N2CCC(N3CC[C@H](Nc4cc(F)c(S(C)(=O)=O)cc4F)C3=O)CC2)n1 [Example 5, (S)-3-(2,5-difluoro-4-(methylsulfonyl)phenylamino)-1-(1-(3-isopropyl-1,2,4-thiadiazol-5-yl)piperidin-4-yl)pyrrolidin-2-one]",19.2 nmol,2.7
"CS(=O)(=O)c1ccc(O[C@H]2CCN(C3CCN(c4nc(C(F)(F)F)ns4)CC3)C2=O)c(F)c1 [Example 86, (S)-3-(2-Fluoro-4-(methylsulfonyl)phenoxy)-1-(1-(3-(trifluoromethyl)-1,2,4-thiadiazol-5-yl)piperidin-4-yl)pyrrolidin-2-one]",11.1 nmol,3.4
"CS(=O)(=O)c1cc(F)c(O[C@H]2CCN(C3CCN(c4nc(C(F)(F)F)ns4)CC3)C2=O)cc1F [Example 91, (S)-3-(2,5-difluoro-4-(methylsulfonyl)phenoxy)-1-(1-(3-(trifluoromethyl)-1,2,4-thiadiazol-5-yl)piperidin-4-yl)pyrrolidin-2-one]",25.6 nmol,5.4
"CC(C)c1nsc(N2CCC(N3CCC(Oc4ccc(-n5cnnn5)cc4)C3=O)CC2)n1 (stereo not shown) [Example 84, 3-(4-(1H-tetrazol-1-yl)phenoxy)-1-(1-(3-isopropyl-1,2,4-thiadiazol-5-yl)piperidin-4-yl)pyrrolidin-2-one]",18.8 nmol,4.2
"CC(C)Cc1nsc(N2CCC(N3CCC[C@H](Nc4ccc(S(C)(=O)=O)cc4F)C3=O)CC2)n1 [Example 28, (S)-3-(2-fluoro-4-(methylsulfonyl)phenylamino)-1′-(3-isobutyl-1,2,4-thiadiazol-5-yl)-[1,4′-bipiperidin]-2-one]",11.6 nmol,2.3
"Cc1cc(N[C@H]2CCN(C3CCN(c4nc(C(C)C)ns4)CC3)C2=O)c(F)cc1S(C)(=O)=O [Example 18, (S)-3-(2-fluoro-5-methyl-4-(methylsulfonyl)phenylamino)-1-(1-(3-isopropyl-1,2,4-thiadiazol-5-yl)piperidin-4-yl)pyrrolidin-2-one]",20.1 nmol,3.4
"CCS(=O)(=O)c1ccc(NC2CCN(C3CCN(c4nc(C(C)C)ns4)CC3)C2=O)cc1F (stereo not shown) [Example 20, 3-(4-(ethylsulfonyl)-3-fluorophenylamino)-1-(1-(3-isopropyl-1,2,4-thiadiazol-5-yl)piperidin-4-yl)pyrrolidin-2-one]",22.6 nmol,3.5
"CS(=O)(=O)c1ccc(N[C@H]2CCCN(C3CCN(c4nc(-c5ccccc5)ns4)CC3)C2=O)c(F)c1 [Example 29, (S)-3-(2-fluoro-4-(methylsulfonyl)phenylamino)-1′-(3-phenyl-1,2,4-thiadiazol-5-yl)-[1,4′-bipiperidin]-2-one]",7.3 nmol,2.2
"CC(C)c1nsc(N2CCC(N3CC[C@H](Nc4ccc(S(=O)(=O)CC5CC5)cc4F)C3=O)CC2)n1 [Example 6, (S)-3-(4-(cyclopropylmethylsulfonyl)-2-fluorophenylamino)-1-(1-(3-isopropyl-1,2,4-thiadiazol-5-yl)piperidin-4-yl)pyrrolidin-2-one]",23.2 nmol,3.2
"CC(C)(C)c1nsc(N2CCC(N3CC[C@H](Oc4c(F)cc(S(C)(=O)=O)cc4F)C3=O)CC2)n1 [Example 36, (S)-1-(1-(3-tert-butyl-1,2,4-thiadiazol-5-yl)piperidin-4-yl)-3-(2,6-difluoro-4-(methylsulfonyl)phenoxy) pyrrolidin-2-one]",23.2 nmol,4.1
"CC1(c2nsc(N3CCC(N4CC[C@H](Oc5ccc(S(C)(=O)=O)cc5F)C4=O)CC3)n2)CCOCC1 [Example 60, (S)-3-(2-fluoro-4-(methylsulfonyl)phenoxy)-1-(1-(3-(4-methyltetrahydro-2H-pyran-4-yl)-1,2,4-thiadiazol-5-yl)piperidin-4-yl)pyrrolidin-2-one]",13.2 nmol,4.5
"CC(C)c1nsc(N2CCC(N3CC[C@H](Nc4ncc(S(C)(=O)=O)cn4)C3=O)CC2)n1 [Example 14, (S)-1-(1-(3-isopropyl-1,2,4-thiadiazol-5-yl)piperidin-4-yl)-3-(5-(methylsulfonyl)pyrimidin-2-ylamino)pyrrolidin-2-one]",17.5 nmol,2.8
"CC(C)c1nsc(N2CCC(N3CCC(Oc4ccc(S(=O)(=O)C5CC5)cc4F)C3=O)CC2)n1 (stereo not shown) [Example 46, 3-(4-(Cyclopropylsulfonyl)-2-fluorophenoxy)-1-(1-(3-isopropyl-1,2,4-thiadiazol-5-yl)piperidin-4-yl)pyrrolidin-2-one trifluoroacetate]",20.7 nmol,4.7
"CC(C)c1nsc(N2CCC(N3CCC(Oc4ccc(C(=O)N(C)CCN(C)C)cc4F)C3=O)CC2)n1 (stereo not shown) [Example 78, N-(2-(dimethylamino)ethyl)-3-fluoro-4-(1-(1-(3-isopropyl-1,2,4-thiadiazol-5-yl)piperidin-4-yl)-2-oxopyrrolidin-3-yloxy)-N-methylbenzamide]",5.0 nmol,1.6
"CC(C)c1nsc(N2CCC(N3CC[C@H](Nc4ccc(Br)cn4)C3=O)CC2)n1 [Example 15, (S)-3-(5-Bromopyridin-2-ylamino)-1-(1-(3-isopropyl-1,2,4-thiadiazol-5-yl)piperidin-4-yl)pyrrolidin-2-one]",11.4 nmol,2.7
"CS(=O)(=O)c1cc(F)c(OC2CCN(C3CCN(c4nc(C5CC5)ns4)CC3)C2=O)cc1F.O=C(O)C(F)(F)F (stereo not shown) [Example 47, 1-(1-(3-Cyclopropyl-1,2,4-thiadiazol-5-yl)piperidin-4-yl)-3-(2,5-difluoro-4-(methylsulfonyl)phenoxy)pyrrolidin-2-one trifluoroacetate]",9.8 nmol,2.7
"CC(C)c1nsc(N2CCC(N3CC[C@H](Oc4ccc(S(C)(=O)=O)c(F)c4)C3=O)CC2)n1 [Example 53, (S)-3-(3-fluoro-4-(methylsulfonyl)phenoxy)-1-(1-(3-isopropyl-1,2,4-thiadiazol-5-yl)piperidin-4-yl)pyrrolidin-2-one]",24.5 nmol,4.9
"CC(C)c1nsc(N2CCC(N3CCC(Oc4ccc(-c5nnn(C)n5)cc4)C3=O)CC2)n1 (stereo not shown) [Example 83, 1-(1-(3-isopropyl-1,2,4-thiadiazol-5-yl)piperidin-4-yl)-3-(4-(2-methyl-2H-tetrazol-5-yl)phenoxy)pyrrolidin-2-one]",14.9 nmol,2.5
"CC(C)c1nsc(N2CCC(N3CCC(Oc4ccc(S(=O)(=O)C(C)C)cc4F)C3=O)CC2)n1 (stereo not shown) [Example 45, 3-(2-fluoro-4-(isopropylsulfonyl)phenoxy)-1-(1-(3-isopropyl-1,2,4-thiadiazol-5-yl)piperidin-4-yl)pyrrolidin-2-one]",17.8 nmol,3.5
